According to ChEMBL document CHEMBL4602729, “O-Alkyl Hydroxamates Display Potent and Selective Antileishmanial Activity” (J Med Chem, 2020):

Tests used:
[1] = Mutagenicity in Salmonella typhimurium TA100 at 10 to 75 uM measured after 5 days in presence of S9 fraction by Ames test; type: toxicity, subcellular; settings: salmonella enterica subsp. enterica serovar typhimurium, s9, 120 h
Leishmania infantum [2] = assay: (§1) Antileishmanial activity against Leishmania infantum MON-1 promastigotes infected in BALB/c mouse assessed as reduction in spleen parasite load at 25 mg/kg, ip administered daily for 14 days starting from 28 days post infection using PLGA nanoparticle incorporated compound measured post last dose by Taqman qRT-PCR analysis relative to control; type: functional; set-up: scale not given: the % may be the effect or the level left
[3] = Toxicity in BALB/c mouse infected with Leishmania infantum MON-1 promastigotes assessed as swelling of kidney at 10 to 25 mg/kg, ip administered daily for 14 days starting from 28 days post infection using PLGA nanoparticle incorporated compound; type: organism-based; settings: in vivo
[4] = Toxicity in BALB/c mouse infected with Leishmania infantum MON-1 promastigotes assessed as enzymatic alteration in plasma at 10 to 25 mg/kg, ip administered daily for 14 days starting from 28 days post infection using gold nanoparticle incorporated compound; type: organism-based; settings: in vivo
[5] = Toxicity in BALB/c mouse infected with Leishmania infantum MON-1 promastigotes assessed as enzymatic alteration in serum at 10 to 25 mg/kg, ip administered daily for 14 days starting from 28 days post infection using PLGA nanoparticle incorporated compound; type: organism-based; settings: in vivo
Leishmania infantum [6] = assay: as §1, with “liver” for “spleen”, “gold” for “PLGA”; type: functional; set-up: scale not given: the % may be the effect or the level left
Leishmania infantum [7] = assay: Antileishmanial activity against Leishmania infantum MON-1 intracellular amastigotes infected in Swiss mouse BMDM assessed as reduction in parasite load at 3.21 uM measured after 48 hrs using PLGA nanoparticle incorporated compound by Giemsa staining based optical microscopic analysis relative to control; type: functional; set-up: scale not given: the % may be the effect or the level left
[8] = Drug metabolism in human liver microsomes assessed as compound 13 formation at 1 uM measured after 30 mins by LC-MS/MS analysis; type: ADME, Microsome; settings: 0.5 h
Leishmania infantum [9] = assay: as §1, with “liver” for “spleen”, “10” for “25”, “gold” for “PLGA”, “dose in presence of meglumine antimoniate” for “dose”; type: functional; set-up: scale not given: the % may be the effect or the level left
[10] = Toxicity in BALB/c mouse infected with Leishmania infantum MON-1 promastigotes assessed as enzymatic alteration in serum at 10 to 25 mg/kg, ip administered daily for 14 days starting from 28 days post infection using gold nanoparticle incorporated compound; type: organism-based; settings: in vivo
BMDM [11] = assay: Cytotoxicity against Swiss mouse BMDM assessed as reduction in cell viability at 3.21 uM measured after 72 hrs using PLGA nanoparticle incorporated compound by tryphan blue assay; type: cell-based
Cytochrome P450 3A4 = Cytochrome P450 3A4 (Homo sapiens, UniProt P08684); assay: Inhibition of CYP3A4 in human liver microsomes using testosterone as substrate measured after 15 mins by LC-MS/MS analysis; type: ADME
[12] = Half life in human liver microsomes at 1 uM in presence of NADPH by LC-MS/MS analysis; type: ADME, Microsome
[13] = Toxicity in BALB/c mouse infected with Leishmania infantum MON-1 promastigotes assessed as swelling of spleen at 10 to 25 mg/kg, ip administered daily for 14 days starting from 28 days post infection using gold nanoparticle incorporated compound; type: organism-based; settings: in vivo
[14] = Toxicity in BALB/c mouse infected with Leishmania infantum MON-1 promastigotes assessed as histological changes at 10 to 25 mg/kg, ip administered daily for 14 days starting from 28 days post infection using PLGA nanoparticle incorporated compound; type: organism-based; settings: in vivo
[15] = Cytotoxicity against mouse L929 cells assessed as reduction in cell viability measured after 72 hrs by tryphan blue assay; type: cell-based; settings: L929 cells
[16] = Toxicity in BALB/c mouse infected with Leishmania infantum MON-1 promastigotes at 5 to 10 mg/kg, ip administered daily for 14 days starting from 28 days post infection using gold nanoparticle incorporated compound in presence of meglumine antimoniate; type: organism-based; settings: in vivo
[17] = Toxicity in BALB/c mouse infected with Leishmania infantum MON-1 promastigotes assessed as biochemical alteration in serum at 10 to 25 mg/kg, ip administered daily for 14 days starting from 28 days post infection using gold nanoparticle incorporated compound; type: organism-based; settings: in vivo
[18] = Drug metabolism in human liver microsomes assessed as vorinostat formation at 1 uM measured up to 60 mins by LC-MS/MS analysis; type: ADME, Microsome; settings: 1 h
BMDM [19] = assay: Cytotoxicity against Swiss mouse BMDM assessed as reduction in cell viability at 14.3 uM measured after 72 hrs using gold nanoparticle incorporated compound by tryphan blue assay; type: cell-based
Leishmania infantum [20] = assay: Antileishmanial activity against Leishmania infantum MON-1 intracellular amastigotes infected in Swiss mouse BMDM measured after 48 hrs by Giemsa staining based optical microscopic analysis; type: functional, organism-based; settings: Leishmania infantum, MON-1, BMDM, 48 h

Cytochrome P450 3A4, sequence (P08684 whole entry): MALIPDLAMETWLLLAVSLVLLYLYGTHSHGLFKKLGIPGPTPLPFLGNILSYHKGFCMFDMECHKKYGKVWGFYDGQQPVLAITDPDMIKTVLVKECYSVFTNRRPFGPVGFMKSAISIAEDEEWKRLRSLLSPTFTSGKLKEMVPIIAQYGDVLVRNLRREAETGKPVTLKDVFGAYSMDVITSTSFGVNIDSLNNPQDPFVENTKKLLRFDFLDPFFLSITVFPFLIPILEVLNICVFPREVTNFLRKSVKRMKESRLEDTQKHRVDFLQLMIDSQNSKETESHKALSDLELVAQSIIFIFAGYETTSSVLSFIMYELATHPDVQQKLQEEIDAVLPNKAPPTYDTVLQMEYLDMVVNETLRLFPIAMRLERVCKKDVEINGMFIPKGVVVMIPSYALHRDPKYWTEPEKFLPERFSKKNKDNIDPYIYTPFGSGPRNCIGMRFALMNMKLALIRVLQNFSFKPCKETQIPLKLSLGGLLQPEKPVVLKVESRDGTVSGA

O=C(CCCCCCC(=O)Nc1ccccc1)NOC(c1ccccc1)(c1ccccc1)c1ccccc1
Activity [1]: Non-Toxic
Activity (Leishmania infantum [2]): 70%
Activity [3]: Non-Toxic
Activity [4]: Non-Toxic
Activity [5]: Non-Toxic
Activity (Leishmania infantum [6]): 68%
Activity (Leishmania infantum [7]): 54%
Drug metabolism [8]: Metabolite_Detected
Activity (Leishmania infantum [9]): 100%
Activity [10]: Non-Toxic
Activity (BMDM [11]): Non-Toxic
IC50 (Cytochrome P450 3A4): 5.56 µM
half-life at 1 µM [12]: 8.7 min
Activity [13]: Non-Toxic
Activity [14]: Non-Toxic
CC50 at 72 h [15]: > 100 µM
Activity [16]: Non-Toxic
Activity [17]: Non-Toxic
Drug metabolism [18]: Metabolite_Notdetected
Activity (BMDM [19]): Non-Toxic
IC50 (Leishmania infantum [20]): 3.21 µM
